Patent US5025036A, “Catechol carboxylic acids” (Hoffmann-La Roche Inc., priority 1989, dated 1991)

Columns and labels:
Carrageenan pleurisy = experiment: Carrageenan Pleurisy Test (In Vivo); parameters: species or system male Lewis rats; details: Rattus norvegicus, po, read-out: Rat Carrageenan Pleurisy % Inhib. of Exudate Volume; for inhibition in vivo at 100 mg/kg: at 100 mg/kg p.o
Experimental: The animals utilized in these studies were male Lewis rats (Charles River Breeding Laboratories) weighing between 230-250 g. […] At 5 or 24 hours after CG injection, the rats were killed by decapitation, exsanguinated, and the pleural cavity exposed by cutting the ribs on both sides of the sternum. The exudate fluid was removed from the pleural cavity with disposable plastic pipettes and its volume quantitated. The pleural cavity was then washed once with phosphate buffered saline containing fetal bovine serum (1:1) and the washings combined with the exudate. The total number of cells in the pleural cavity was quantitated using a Coulter Counter (Model ZM) adjusted to exclude any contaminating RBC. (Published in "Plant Flavonoids in Biology & Medicine: Biochemical, Pharmacological and Structure-Activity Relationships" p. 231-242 (1986) Alan R. Liss, Inc.)

[1] = system: myeloperoxidase accumulation (acetic acid-induced colitis); experiment: Acetic Acid-Induced Colitis in Rats, In Vivo; parameters: species or system male rats (Sprague-Dawley)
From the text: The rat acetic acid-induced colitis bioassay has been described by J. E. Krawisz, et al. in Amer. J. Proc. Gastro. Col. Rec. Surg. 31: 11-18 (1980), and by P. Sharon and W. F. Stenson in Gastroenterolgy 88: 55-63 (1985) and 86: 453-460 (1984). Acetic acid-induced colitis is characterized by the movement of inflammatory cells into the colon, with the number of such cells in the mucosa being measured by the activity of myeloperoxidase, a marker enzyme for these cells. Positive desirable activity is indicated by a reduction in the high levels of myeloperoxidase caused by acetic acid. Male rats (Sprague-Dawley), weighing 150 to 300 g, were pretreated twice daily for two days with either the vehicle (water, or dimethylsulfoxide) or the test inhibitor compound suspended in water or dissolved in dimethylsulfoxide and orally administered. On the third day, the animals were dosed the same as on the previous two days, anesthetized with metofane, and 2 ml of 2.5% acetic acid was injected by syringe into the colonic lumen, followed immediately by 3 ml of air and a rinse consisting of 3 ml of phosphate-buffered saline (the acetic acid is present in the lumen for a sufficient period to cause inflammation without producing severe necrosis or irreversible damage). The animals were administered a second dose of the test compound in the same amount about 16 hours later. 24 hours after the acetic acid treatment, the animals were sacrificed, the colonic mucosa was surgically removed and homogenized in an aqueous buffer at pH 6 with a Tissumizer or similar device and myeloperoxidase was measured in the homogenate using o-phenylenediamine as a chromagen, as described by A. Voller, D. E. Bidwell and A. Bartlett in The Enzyme Linked Immunosorbent Assay (ELISA), Zoological Soc., London, 1979, pages 29-30. Control animals were pretreated with the vehicle and saline in place of acetic acid.

Compound | inhibition in vivo at 100 mg/kg (Carrageenan pleurisy) [%] | Rat Acetic Acid Colitis Model % Inhib. of Myeloperoxidase Accumulation ([1]; 10 mg/kg p.o) [%] | Rat Acetic Acid Colitis Model % Inhib. of Myeloperoxidase Accumulation ([1]; 30 mg/kg p.o) [%] | other results
CCCc1c(OCCCCCCc2ccc(O)c(O)c2)ccc(C(=O)O)c1O [4-[6-(3,4-dihydroxyphenyl)hexyloxy]-2-hydroxy-3-propylbenzoic acid] | 0 |  |  | 
CCCc1c(OCCCCCCc2ccc(C(C)C)c(O)c2O)ccc(C(=O)O)c1O [4-[6-[2,3-dihydroxy-4-(1-methylethyl)phenyl]hexyloxy]-2-hydroxy-3-propylbenzoic acid] |  | 53 ± 12 |  | inhibition in vivo at 75 mg/kg (Carrageenan pleurisy; at 75 mg/kg p.o): 47%; Rat Acetic Acid Colitis Model % Inhib. of Myeloperoxidase Accumulation ([1]; 100 mg/kg p.o): 86 ± 9%
CCCc1c(OCCCCc2cccc(O)c2O)ccc(C(C)=O)c1O [1-[2-Hydroxy-4-[4-(2,3-dihydroxyphenyl)butoxy]-3-propylphenyl]ethanone] | 53 | 46 ± 7 | 89 ± 11 | 
CCCc1c(OCCCCCCCCCCc2cccc(O)c2O)ccc(C(=O)O)c1O [4-[10-(2,3-dihydroxyphenyl)decyloxy]-2-hydroxy-3-propylbenzoic acid] | 61 |  |  | 
CCCc1c(OCCCCCc2cccc(O)c2O)ccc(C(=O)O)c1O [4-[5-(2,3-Dihydroxyphenyl)pentyloxy]-2-hydroxy-3-propylbenzoic acid] | 63 |  |  | Rat Acetic Acid Colitis Model % Inhib. of Myeloperoxidase Accumulation ([1]; 1 mg/kg p.o): 96 ± 13%
CCCc1c(OCCCCCCc2ccc(C(C)C)c(O)c2O)ccc(C(C)=O)c1O [1-[2-hydroxy-4 [6-[2,3 dihydroxy-4-(1-methylethyl)phenyl]hexyloxy]-3 propylphenyl]ethanone] |  | 65 ± 10 |  | 
O=C(O)c1ccc(OCCCCCCc2cccc(O)c2O)cc1O [4-[6-(2,3-Dihydroxyphenyl)hexyloxy]-2-hydroxybenzoic acid] | 0 |  |  | Rat Acetic Acid Colitis Model % Inhib. of Myeloperoxidase Accumulation ([1]; 1 mg/kg p.o): 82 ± 9%; Rat Acetic Acid Colitis Model % Inhib. of Myeloperoxidase Accumulation ([1]; 3 mg/kg p.o): 81 ± 15%
CCCc1c(O)c(C(=O)O)cc(Cl)c1OCCCCCCc1cccc(O)c1O [5-Chloro-2-hydroxy-4-[6-(2,3-dihydroxyphenyl]hexyloxy]-3-propylbenzoic acid] |  |  | 44 ± 6 | inhibition in vivo at 50 mg/kg (Carrageenan pleurisy; at 50 mg/kg p.o): 45%
CCCc1c(OCCCCCCc2cccc(O)c2O)ccc(C(=O)O)c1O [4-[6-(2,3-Dihydroxyphenyl)hexyloxy]-2-hydroxy-3-propylbenzoic acid] | 68 | 42 ± 2 | 67 ± 15 | 
CCCc1c(OCCCCCCc2cccc(O)c2O)ccc(C(C)=O)c1O [1-[2-hydroxy-4-[6-(2,3-dihydroxyphenyl)hexyloxy]-3-propylphenyl]ethanone] | 51 |  |  | 
CCCc1c(OCCCc2ccc(O)c(O)c2)ccc(C(=O)O)c1O [4-[3-(3,4-Dihydroxyphenyl)propoxy]-2-hydroxy-3-propylbenzoic acid] | 55 |  | 39 ± 5 | 
CCCc1c(OCCCCCCCc2cccc(O)c2O)ccc(C(=O)O)c1O [4-[7-(2,3-dihydroxyphenyl)heptyloxy]-2-hydroxy-3-propylbenzoic acid] | 57 |  |  | 
CCCc1c(OCCCCCCCCc2cccc(O)c2O)ccc(C(=O)O)c1O [4-[8-(2,3-dihydroxyphenyl)octyloxy]-2-hydroxy-3-propylbenzoic acid] | 66 | 35 ± 7 |  | Rat Acetic Acid Colitis Model % Inhib. of Myeloperoxidase Accumulation ([1]; 100 mg/kg p.o): 27 ± 3%
CCCc1c(OCCCCCCc2cccc(O)c2O)ccc(C(=O)OCC)c1O [4-[6-(2,3-Dihydroxyphenyl)hexyloxy]-2-hydroxy-3-propylbenzoic acid ethyl ester] | 44 |  |  | Rat Acetic Acid Colitis Model % Inhib. of Myeloperoxidase Accumulation ([1]; 1 mg/kg p.o): 40 ± 9%; Rat Acetic Acid Colitis Model % Inhib. of Myeloperoxidase Accumulation ([1]; 3 mg/kg p.o): 67 ± 11%
CCCc1c(OCCCCc2cccc(O)c2O)ccc(C(=O)O)c1O [4-[4-(2,3-dihydroxyphenyl)butoxy]-2-hydroxy-3-propylbenzoic acid] | 76 | 73 ± 10 | 71 ± 11 | 
O=C(O)c1ccc(OCCCCCCc2cccc(O)c2O)cc1 [4-[6-(2,3-Dihydroxyphenyl)hexyloxy]benzoic acid] | 46 | 89 ± 28 |  | Rat Acetic Acid Colitis Model % Inhib. of Myeloperoxidase Accumulation ([1]; 3 mg/kg p.o): 79 ± 8%
